“Also recorded” adds a separate entry of the source. Where two headings read alike, the source gives them in different places.
Tests used:
[1] = system: superoxide anion (—O2^−) generation in coronary adventitia; test: —O2^− production in uninjured coronary adventitia (SOD-inhibitable NBT reduction); format: cell-based, pigs; details: uninjured coronary rings pre-incubated with inhibitor; DPI 100 μM, ROT 50 μM, OXY 300 μM
Description: The production of —O2^− is measured by superoxide dismutase- (SOD) or tiron-inhibitable conversion of nitroblue tetrazolium (NBT) to formazan. (20,21)
—O2^− production in coronary arteries: Coronary arteries are dissected free from adipose tissue and myocardium and then cut into ˜5 mm rings and placed in 24-well plates. Tissues are balanced in phenol-free DMEM at 37° C. in a CO2 incubator for 30 minutes with or without addition of SOD (SOD, 1000 unit/ml) or tiron (10 mM), both scavengers of —O2^− Freshly made NBT (100 mg/L in phenol-free DMEM) is added to the tissues with a gentle rocking for 3 hours. The reaction is terminated by addition of equal volume of 0.5N HCl, and tissues are rinsed twice with cold PBS. To extract formazan, tissues are pulverized in liquid nitrogen and dissolved in 100% pyridine at 80° C. for 30 minutes. After centrifugation, light absorbance is read in supernatants at 540 nm. The NBT reduction to formazan is calculated using the following formula: NBT reduction=A×V/(T×E×L) (A: absorbance; V: volume of solubilizing solution; T: time of incubation with NBT (minutes); E: extinction coefficient=0.72 mmol.mm; L: length of light travel through the solution, 10 mm). Either SOD- or tiron-inhibitable NBT reduction is calculated as measures of —O2^− production (pmol/min/mg wet weight). To determine the pathways mediating —O2^− production, several inhibitors are used in the experiments, including diphenyleneiodonium (DPI, 100 μM), rotenone (ROT, 50 μM), oxypurinol (OXY, 300 μM), N^ω-nitro-L-arginine methyl ester (L-NAME, 1 mM), and diethyldithio-carbamic acid (DETCA, 10 mM). The n value represents the number of vascular rings obtained from at least 3 animals per experimental condition.

[2] = system: superoxide generation in injured coronary arteries; test: Superoxide generation in injured coronary arteries (SOD-inhibitable NBT reduction); format: cell-based, pigs; details: for Superoxide generation (SOD-inhibitable NBT reduction): rings pretreated 30 minutes, DPI 100 μM or L-NAME 1 mM; for effect on superoxide generation after coronary injury: injured coronary arteries, DPI 100 μM, L-NAME 1 mM
Text: Domestic crossbred female pigs (12-15 kg) are anesthetized and instrumented, as previously described. (22,23) After the exposure of the right common carotid artery, heparin (5,000 U) is intravenously administered. […] The third artery is used as a control. The animals are euthanatized with intravenous […] Laboratory) at the times indicated in the text. […] Coronary arteries are dissected free from adipose tissue and myocardium and then cut into 5 mm rings and placed in 24-well plates. […] The reaction is terminated by addition of equal volume of 0.5N HCl, and tissues are rinsed twice with cold PBS. To extract formazan, tissues are pulverized in liquid nitrogen and dissolved in 100% pyridine at 80° C. for 30 minutes. After centrifugation, light absorbance is read in supernatants at 540 nm. The NBT reduction to formazan is calculated using the following formula: NBT reduction=[…]: absorbance; V: volume of solubilizing solution; T: time of incubation with NBT (minutes); […] L: length of light travel through the solution, 10 mm).

[3] = system: —O2^− generation in coronary adventitial fibroblasts; test: Serum-induced —O2^− generation in coronary adventitial fibroblasts (NBT to formazan); format: cell-based, porcine
Description: —O2^− production in isolated adventitial fibroblasts: Adventitial fibroblasts (passage 2-6) are plated in 6-well plates at 100,000 cells/well in 10% FBS. Two (2) days later, when cells are ˜80% confluent, they are arrested in 0.5% FBS for the next 48 hours. Afterwards, they are stimulated with 10% FBS for 1-24 hours, followed by incubation with NBT (0.5 mg/ml in phenol-free DMEM) for one hour. After a brief washing, cells are trypsinized, and cell pellets are dissolved in 100% pyridine. The light absorbance is measured at 540 nm, and the NBT reduction to formazan is calculated as described above and corrected by cell number. Values are derived from 6-9 wells from three separate experiments.

adventitial fibroblasts = test: Cell proliferation assay, serum-stimulated adventitial fibroblasts (cell counting); format: cell-based, porcine; details: for effect on fibroblast growth (cell counting): 10% FBS, 3 days after treatment, concentration-dependent; for effect on serum-induced growth of vascular cells in vitro: serum-stimulated isolated vascular cells (fibroblasts and SMC, FIGS. 7A and 7B)
Description: (§1) Fibroblasts are isolated from the adventitia of porcine coronary arteries as described. (26) The cells (passage 2-6) are plated in triplicates at 10,000 cells/well in 24-well plates in DMEM supplemented with 10% FBS. At 24 hours later, cells are arrested in DMEM containing 0.5% FBS for 48 hours. Afterwards, they are stimulated with 10% FBS for 3 days with or without addition of indicated inhibitors. Cells are trypsinized at 72 hours after stimulation and counted in a Coulter counter. Values are derived from 3 wells/treatment and the experiments are repeated at least three times on separate occasions.

vascular SMC = test: Vascular SMC proliferation, serum-stimulated (cell counting); format: cell-based; details: 10% FBS, 3 days after treatment; concentration-dependent
Description: FIG. 7B. ROS and vascular SMC proliferation. SMC (10,000 cells/well) are arrested with 0.5% FBS for 48 hours and then stimulated with 10% FBS in the presence or absence of various inhibitors. Cell growth is examined at 3 days after treatment by cell counting. […] The experiments are repeated 3 times yielding similar results.
as §1

[4] = system: superoxide anion (—O2^−) in SVG; test: Superoxide anion in saphenous vein grafts (SOD-inhibitable NBT reduction); format: cell-based, pigs; details: SVG 2 weeks after surgery, DPI 100 μM; for effect on superoxide anion in SVG (SOD-inhibitable NBT reduction): L-NAME 1 mM
Description: A porcine model of a graft interposition in the common carotid artery is used as described. (49) Domestic crossbred pigs (n=22) weighing 35-50 kg are sedated with Telazol (3-5 mg/kg) and atropine (0.01 mg/kg) i.m. Anesthesia is maintained with Propofol, i.v. (15 mg/kg/hr). The animals are ventilated with 100% oxygen. Saphenous veins are harvested without distension and incubated for 30 minutes in saline containing nitroglycerine (0.5 mg/ml). Both carotid arteries are dissected free and heparin (150 U/kg) is administered i.v. A ˜2 cm section of the carotid artery is excised and reversed vein interposition grafting is performed. The excised carotid artery then is grafted into the contralateral carotid artery. Postoperative analgesia is provided with Buprenex (0.015 mg/kg) i.m. The animals are given aspirin 650 mg/day p.o. At the times indicated, animals are euthanized with Euthasol (80 mg/kg) i.v. and vascular tissues harvested.
Superoxide anion (—O2^−) production is measured by SOD-inhibitable conversion of NTB to formazan. (20,21) Normal saphenous veins, arteries, SVG, and AG are harvested at 2 weeks after surgery. After the removal of adventitia and endothelium, tissues are cut into ˜5 mm strips, placed in a 24-well plate, and balanced in pheno-free DMEM at 37° C. in CO2 for 30 minutes. Freshly made NBT (0.1 mg/ml in pheno-free DMEM) is added for 3 hours with or without addition of SOD (1000 U/ml). The reaction is terminated by 0.5N HCl and rinsing twice with cold PBS. To extract formazan, tissues are pulverized in liquid nitrogen, dissolved in 100% pyridine at 80° C. for 30 minutes, and centrifuged. Supernatants are read at 540 nm and NBT reduction is calculated as follows: NBT reduction=A×V/(T×E×L) (A: absorbance; V: volume of solubilizing solution; T: time of incubation with NBT (minutes); E: extinction coefficient=0.72 mmol.mm; L: length of light travel through the solution (10 mm).) The SOD-inhibitable NBT reduction is calculated as a measure of —O2^− (pmol/mg wet weight/min). In separate experiments, the inhibitors of oxidative enzymes are used, inlcuding diphenyleneiodonium (DPI, 100 μM) rotenone (ROT, 50 μμM), oxypurinol (OXY, 300 μμM) and N^ω-nitro-L-arginine methyl ester (L-NAME, 1 mM), to determine the origin of —O2^− in vascular grafts.

[5] = pretreated 30 minutes, 10% FBS for 3 hours, DPI 10 μM, SOD 500 U/ml

| Molecule | effect on —O2^− generation in coronary adventitia (SOD-inhibitable NBT reduction) [1] | effect on fibroblast growth (cell counting) (adventitial fibroblasts) | effect on serum-induced growth of vascular cells in vitro (adventitial fibroblasts) | effect on SMC growth (cell counting) (vascular SMC) | effect on superoxide anion in SVG (SOD-inhibitable NBT reduction) [4] | effect on serum-induced —O2^− production [3, 5] | further results |
| --- | --- | --- | --- | --- | --- | --- | --- |
| c1ccc2c(c1)[I+]c1ccccc1-2 [DPI, diphenyleneiodonium] | inhibits; also recorded: abolishes | significantly inhibits | significantly inhibits; also recorded: abrogates | significantly inhibits | significantly reduced | – | Superoxide generation (SOD-inhibitable NBT reduction) ([2]; 2 days after injury): 0.5 ± 0.9 pmol/mg/min; Superoxide generation (SOD-inhibitable NBT reduction) ([2]; 10 days after injury): 0.2 ± 0.3 pmol/mg/min; effect on superoxide generation after coronary injury [2]: almost entirely abolishes; effect on serum-induced —O2^− production [3]: significant inhibition; also recorded: significant reduction; reduction of —O2^− in SVG [4]: > 95% |
| COC(=O)[C@@H](N)CCCNC(=N)N[N+](=O)[O-] [L-NAME, N^ω-nitro-L-arginine methyl ester] | – | – | no significant effects | – | no effects; also recorded: do not decrease | no effects | Superoxide generation (SOD-inhibitable NBT reduction) ([2]; 2 days after injury): 12.9 ± 9.4 pmol/mg/min; Superoxide generation (SOD-inhibitable NBT reduction) ([2]; 10 days after injury): 11.5 ± 6.1 pmol/mg/min; effect on superoxide generation after coronary injury [2]: shows no effect |
| CC(=O)N[C@@H](CS)C(=O)O [NAC, N-acetylcysteine] | – | – | – | significantly inhibits | – | – | – |
| O=c1[nH]c(=O)c2c[nH]nc2[nH]1 [OXY, oxypurinol] | no inhibitory effects; also recorded: no effect | – | no significant effects | – | do not decrease | no effects | effect on superoxide anion in SVG (SOD-inhibitable NBT reduction) ([4]; listed as oxypurinol): no effects |
| C=C(C)[C@H]1Cc2c(ccc3c2O[C@@H]2COc4cc(OC)c(OC)cc4[C@@H]2C3=O)O1 [ROT, rotenone] | no inhibitory effects; also recorded: no effect | – | – | – | do not decrease | no effects | effect on superoxide anion in SVG (SOD-inhibitable NBT reduction) ([4]; listed as rotenone): no effects |
| COc1cc(C(C)=O)ccc1O [apocynin, 4-hydroxy-3-methoxyacetopoenone] | – | – | – | significantly inhibits | – | – | – |
| O=S(=O)(O)c1cc(O)c(O)c(S(=O)(=O)O)c1 [tiron] | – | significantly inhibits | inhibits; also recorded: abrogates | significantly inhibits | – | – | – |
| SOD: superoxide dismutase, exogenous enzyme; dismutation of —O2^− to H2O2 | – | no significant inhibition | does not prevent; also recorded: ineffective | no significant inhibition | – | significant inhibition; also recorded: significant reduction | – |
| CAT: catalase; removal of H2O2 (protein, UniProt P00432 2-527, looked up) Catalase: ADNRDPASDQMKHWKEQRAAQKPDVLTTGGGNPVGDKLNSLTVGPRGPLLVQDVVFTDEMAHFDRERIPERVVHAKGAGAFGYFEVTHDITRYSKAKVFEHIGKRTPIAVRFSTVAGESGSADTVRDPRGFAVKFYTEDGNWDLVGNNTPIFFIRDALLFPSFIHSQKRNPQTHLKDPDMVWDFWSLRPESLHQVSFLFSDRGIPDGHRHMNGYGSHTFKLVNANGEAVYCKFHYKTDQGIKNLSVEDAARLAHEDPDYGLRDLFNAIATGNYPSWTLYIQVMTFSEAEIFPFNPFDLTKVWPHGDYPLIPVGKLVLNRNPVNYFAEVEQLAFDPSNMPPGIEPSPDKMLQGRLFAYPDTHRHRLGPNYLQIPVNCPYRARVANYQRDGPMCMMDNQGGAPNYYPNSFSAPEHQPSALEHRTHFSGDVQRFNSANDDNVTQVRTFYLKVLNEEQRKRLCENIAGHLKDAQLFIQKKAVKNFSDVHPEYGSRIQALLDKYNEEKPKNAVHTYVQHGSHLSAREKANL | – | significantly inhibits | inhibits; also recorded: abrogates | significantly inhibits | – | – | – |

Reference: US20020022022A1, “Inhibition of cell proliferation and matrix synthesis by antioxidants and NAD(P)H oxidase inhibitors” (priority 2000, published 2002)
